Measurements reported in patent US11840686B2, “Modulation of prekallikrein (PKK) expression” (Ionis Pharmaceuticals, Inc., priority 2013, dated 2023).
Strand notation (5' to 3'): a small letter for the sugar, then the base; units joined by * are phosphorothioate-linked, units joined directly phosphodiester-linked; [ ] holds rarer units or linkages, { } end groups; capitals alone tell only the bases. e = 2'-O-(2-methoxyethyl) (MOE); [5mC] = 5-methylcytosine; d = 2'-deoxy (DNA)

Test system: human PKK mRNA
Test: Antisense inhibition of human PKK mRNA in HepaRG cells, 3,000 nM (Example 1)
Assay type: cell-based
Conditions: PKK mRNA, HepaRG cells, 3,000 nM, electroporation, ~24 h, relative to untreated control cells
Description: Antisense oligonucleotides were designed targeting a PKK nucleic acid and were tested for their effects on PKK mRNA in vitro. HepaRG™ cells, which are terminally differentiated hepatic cells derived from a human hepatic progenitor cell line and retain many characteristics of primary human hepatocytes (Lubberstedt M. et al., J. Pharmacol. Toxicol. Methods 2011 63: 59-68), were used in the screen.
The chimeric antisense oligonucleotides in the tables below were designed as 5-10-5 MOE gapmers. The gapmers are 20 nucleosides in length, wherein the central gap segment comprises of ten 2′-deoxynucleosides and is flanked by wing segments on the 5′ direction and the 3′ direction comprising five nucleosides each. Each nucleoside in the 5′ wing segment and each nucleoside in the 3′ wing segment has a 2′-O-methoxyethyl modification. The internucleoside linkages throughout each gapmer are phosphorothioate linkages. All cytosine residues throughout each gapmer are 5-methylcytosines. “Start site” indicates the 5′-most nucleoside to which the gapmer is targeted in the human gene sequence. “Stop site” indicates the 3′-most nucleoside to which the gapmer is targeted in the human gene sequence.
Cultured HepaRG™ cells at a density of 20,000 cells per well were transfected using electroporation with 3,000 nM antisense oligonucleotide. After a treatment period of approximately 24 hours, RNA was isolated from the cells and PKK mRNA levels were measured by quantitative real-time PCR. Human primer probe set RTS3454 (forward sequence […], designated herein as SEQ ID NO: 20; reverse sequence […], designated herein as SEQ ID NO: 21; probe sequence […], designated herein as SEQ ID NO: 22) was used to measure mRNA levels. PKK mRNA levels were adjusted according to total RNA content, as measured by RIBOGREEN®. The antisense oligonucleotides were tested in a series of experiments that had similar culture conditions. Results are presented as percent inhibition of PKK, relative to untreated control cells.

In the case of “30929 (antisense eA*eA*e[5mC]*eG*eG*dT*d[5mC]*dT*dT*d[5mC]*dA*dA*dG*d[5mC]*dT*eG*eT*eT*e[5mC]*eT) [compound 30929]”, the “% inhibition” value (Table 1) is reported as 59%.

With “482586 (antisense eA*e[5mC]*e[5mC]*e[5mC]*eA*dA*d[5mC]*dA*dG*dT*dT*dG*dG*dT*dA*eT*eA*eA*eA*eT) [compound 482586]” the “% inhibition” value (Table 2) was 0%.

For “530930 (antisense eA*eA*eA*eT*eG*dA*dA*d[5mC]*dG*dG*dT*d[5mC]*dT*dT*d[5mC]*eA*eA*eG*e[5mC]*eT) [compound 530930]”, the “% inhibition” value (Table 1) was 17%.

In the case of “530931 (antisense e[5mC]*eT*eT*eA*eA*dA*dA*dA*dT*dG*dA*dA*d[5mC]*dG*dG*eT*e[5mC]*eT*eT*e[5mC]) [compound 530931]”, the “% inhibition” value (Table 1) is reported as 29%.

In the case of “530932 (antisense eT*eG*eT*e[5mC]*eA*d[5mC]*dT*dT*dA*dA*dA*dA*dA*dT*dG*eA*eA*e[5mC]*eG*eG) [compound 530932]”, the “% inhibition” value (Table 1) is reported as 52%.

In the case of “530934 (antisense e[5mC]*eT*eT*e[5mC]*eT*dT*dG*dG*dA*dG*dG*dT*dG*dA*dG*eT*e[5mC]*eT*e[5mC]*eT) [compound 530934]”, the “% inhibition” value (Table 1) is reported as 54%.

“530935 (antisense eG*e[5mC]*eT*eT*eG*dA*dA*dT*dA*dA*dA*dA*dT*d[5mC]*dA*eT*eT*e[5mC]*eT*eG) [compound 530935]” was tested, and the “% inhibition” value (Table 1) was 0%.

“530936 (antisense eT*eG*e[5mC]*eT*eT*dG*d[5mC]*dT*dT*dG*dA*dA*dT*dA*dA*eA*eA*eT*e[5mC]*eA) [compound 530936]” was tested, and the “% inhibition” value (Table 1) was 27%.

With “530937 (antisense eT*eA*eA*eG*eT*dT*dG*d[5mC]*dT*dT*dG*d[5mC]*dT*dT*dG*eA*eA*eT*eA*eA) [compound 530937]” the “% inhibition” value (Table 1) was 0%.

With “530938 (antisense eG*eG*eA*eA*eA*dT*dG*dA*dA*dA*dT*dA*dA*dG*dT*eT*eG*e[5mC]*eT*eT) [compound 530938]” the “% inhibition” value (Table 1) was 11%.

“530939 (antisense eA*eA*e[5mC]*eA*eA*dG*dG*dA*dA*dA*dT*dG*dA*dA*dA*eT*eA*eA*eG*eT) [compound 530939]” was tested, and the “% inhibition” value (Table 1) was 0%.

“530940 (antisense eT*eA*eG*e[5mC]*eA*dA*dA*d[5mC]*dA*dA*dG*dG*dA*dA*dA*eT*eG*eA*eA*eA) [compound 530940]” was tested, and the “% inhibition” value (Table 1) was 7%.

With “530941 (antisense eA*eA*e[5mC]*eT*eG*dT*dA*dG*d[5mC]*dA*dA*dA*d[5mC]*dA*dA*eG*eG*eA*eA*eA) [compound 530941]” the “% inhibition” value (Table 1) was 22%.

With “530942 (antisense e[5mC]*eA*eG*eG*eA*dA*dA*d[5mC]*dT*dG*dT*dA*dG*d[5mC]*dA*eA*eA*e[5mC]*eA*eA) [compound 530942]” the “% inhibition” value (Table 1) was 22%.

For “530943 (antisense eA*eT*e[5mC]*e[5mC]*eA*d[5mC]*dA*dG*dG*dA*dA*dA*d[5mC]*dT*dG*eT*eA*eG*e[5mC]*eA) [compound 530943]”, the “% inhibition” value (Table 1) was 56%.

In the case of “530944 (antisense e[5mC]*eA*eG*eA*e[5mC]*dA*dT*d[5mC]*d[5mC]*dA*d[5mC]*dA*dG*dG*dA*eA*eA*e[5mC]*eT*eG) [compound 530944]”, the “% inhibition” value (Table 1) is reported as 0%.

With “530945 (antisense eA*eT*e[5mC]*e[5mC]*e[5mC]*d[5mC]*dA*d[5mC]*d[5mC]*dT*d[5mC]*dT*dG*dA*dA*eG*eA*eA*eG*eG) [compound 530945]” the “% inhibition” value (Table 1) was 0%.

In the case of “530946 (antisense eT*eA*e[5mC]*eA*eT*d[5mC]*d[5mC]*d[5mC]*d[5mC]*dA*d[5mC]*d[5mC]*dT*d[5mC]*dT*eG*eA*eA*eG*eA) [compound 530946]”, the “% inhibition” value (Table 1) is reported as 0%.

“530947 (antisense eG*eA*eA*eG*e[5mC]*dT*dA*d[5mC]*dA*dT*d[5mC]*d[5mC]*d[5mC]*d[5mC]*dA*e[5mC]*e[5mC]*eT*e[5mC]*eT) [compound 530947]” was tested, and the “% inhibition” value (Table 1) was 27%.

“530948 (antisense eA*e[5mC]*eA*eT*eG*dG*dA*dA*dG*d[5mC]*dT*dA*d[5mC]*dA*dT*e[5mC]*e[5mC]*e[5mC]*e[5mC]*eA) [compound 530948]” was tested, and the “% inhibition” value (Table 1) was 35%.

“530949 (antisense eG*eG*eT*eG*eT*dA*d[5mC]*dA*dT*dG*dG*dA*dA*dG*d[5mC]*eT*eA*e[5mC]*eA*eT) [compound 530949]” was tested, and the “% inhibition” value (Table 1) was 31%.

“530950 (antisense eA*e[5mC]*e[5mC]*eT*eT*dG*dG*dG*dT*dG*dG*dA*dA*dT*dG*eT*eG*e[5mC]*eA*e[5mC]) [compound 530950]” was tested, and the “% inhibition” value (Table 1) was 47%.

“530951 (antisense e[5mC]*eA*eA*eA*e[5mC]*dA*d[5mC]*d[5mC]*dT*dT*dG*dG*dG*dT*dG*eG*eA*eA*eT*eG) [compound 530951]” was tested, and the “% inhibition” value (Table 1) was 49%.

For “530952 (antisense e[5mC]*eT*eG*eA*eA*dT*dA*dG*d[5mC]*dA*dA*dA*d[5mC]*dA*d[5mC]*e[5mC]*eT*eT*eG*eG) [compound 530952]”, the “% inhibition” value (Table 1) was 38%.

“530953 (antisense eG*eA*eA*eA*eA*d[5mC]*dT*dG*dA*dA*dT*dA*dG*d[5mC]*dA*eA*eA*e[5mC]*eA*e[5mC]) [compound 530953]” was tested, and the “% inhibition” value (Table 1) was 7%.

For “530954 (antisense eT*eG*eG*eA*eA*dG*dA*dA*dA*dA*d[5mC]*dT*dG*dA*dA*eT*eA*eG*e[5mC]*eA) [compound 530954]”, the “% inhibition” value (Table 1) was 47%.

With “530955 (antisense e[5mC]*eA*eA*eA*e[5mC]*d[5mC]*dT*dT*dT*dT*d[5mC]*dT*d[5mC]*d[5mC]*dA*eT*eG*eT*e[5mC]*eA) [compound 530955]” the “% inhibition” value (Table 1) was 55%.

In the case of “530956 (antisense eA*e[5mC]*eA*e[5mC]*eT*dA*dT*d[5mC]*dT*dT*dT*d[5mC]*dA*dA*dG*eA*eA*eG*e[5mC]*eA) [compound 530956]”, the “% inhibition” value (Table 1) is reported as 57%.

“530957 (antisense eG*eG*e[5mC]*eA*eA*dG*d[5mC]*dA*d[5mC]*dT*dT*dA*dT*dT*dT*eG*eA*eT*eG*eA) [compound 530957]” was tested, and the “% inhibition” value (Table 1) was 56%.

“530958 (antisense eT*eT*eA*eA*eA*dA*dT*dT*dG*dA*d[5mC]*dT*d[5mC]*d[5mC]*dT*e[5mC]*eT*e[5mC]*eA*eT) [compound 530958]” was tested, and the “% inhibition” value (Table 1) was 60%.

With “530960 (antisense eA*eT*eT*e[5mC]*eT*dT*d[5mC]*dA*dA*d[5mC]*dA*d[5mC]*dT*dG*d[5mC]*eT*eA*eA*e[5mC]*e[5mC]) [compound 530960]” the “% inhibition” value (Table 1) was 58%.

For “530961 (antisense eT*eT*eG*eG*e[5mC]*dA*dT*dT*d[5mC]*dT*dT*d[5mC]*dA*dA*d[5mC]*eA*e[5mC]*eT*eG*e[5mC]) [compound 530961]”, the “% inhibition” value (Table 1) was 88%.

In the case of “530962 (antisense e[5mC]*e[5mC]*eT*eT*eT*dT*dT*dT*dG*dG*d[5mC]*dA*dT*dT*d[5mC]*eT*eT*e[5mC]*eA*eA) [compound 530962]”, the “% inhibition” value (Table 1) is reported as 64%.

For “530963 (antisense eT*eG*eG*eT*eG*d[5mC]*dA*d[5mC]*d[5mC]*dT*dT*dT*dT*dT*dT*eG*eG*e[5mC]*eA*eT) [compound 530963]”, the “% inhibition” value (Table 1) was 78%.

For “530964 (antisense e[5mC]*eT*eT*e[5mC]*eA*dG*dT*dG*dA*dG*dA*dA*dT*d[5mC]*d[5mC]*eA*eG*eA*eT*eT) [compound 530964]”, the “% inhibition” value (Table 1) was 44%.

With “530966 (antisense eA*eA*eT*eT*eT*d[5mC]*dT*dG*dA*dA*dA*dG*dG*dG*d[5mC]*eA*e[5mC]*eA*eG*eG) [compound 530966]” the “% inhibition” value (Table 1) was 58%.

“530968 (antisense e[5mC]*eA*eA*eG*eA*dT*dG*d[5mC]*dT*dG*dG*dA*dA*dG*dA*eT*eG*eT*eT*e[5mC]) [compound 530968]” was tested, and the “% inhibition” value (Table 1) was 18%.

With “530969 (antisense eG*eT*eG*e[5mC]*e[5mC]*dA*d[5mC]*dT*dT*dT*d[5mC]*dA*dG*dA*dT*eG*eT*eT*eT*eT) [compound 530969]” the “% inhibition” value (Table 1) was 0%.

“530972 (antisense eG*eT*eA*eG*eA*dG*dG*dA*dA*d[5mC]*dT*dT*dG*dG*dT*eG*eT*eG*e[5mC]*e[5mC]) [compound 530972]” was tested, and the “% inhibition” value (Table 1) was 42%.

In the case of “530973 (antisense eG*eA*eG*eG*eA*dG*dT*dA*dG*dA*dG*dG*dA*dA*d[5mC]*eT*eT*eG*eG*eT) [compound 530973]”, the “% inhibition” value (Table 1) is reported as 52%.

“530974 (antisense eT*eT*e[5mC]*eT*eT*dG*dA*dG*dG*dA*dG*dT*dA*dG*dA*eG*eG*eA*eA*e[5mC]) [compound 530974]” was tested, and the “% inhibition” value (Table 1) was 18%.

With “530975 (antisense eG*eT*eG*eT*eT*dT*dT*d[5mC]*dT*dT*dG*dA*dG*dG*dA*eG*eT*eA*eG*eA) [compound 530975]” the “% inhibition” value (Table 1) was 41%.

In the case of “530976 (antisense eA*eT*eA*eT*eG*dG*dT*dG*dT*dT*dT*dT*d[5mC]*dT*dT*eG*eA*eG*eG*eA) [compound 530976]”, the “% inhibition” value (Table 1) is reported as 26%.

For “530977 (antisense eT*e[5mC]*e[5mC]*eA*eG*dA*dT*dA*dT*dG*dG*dT*dG*dT*dT*eT*eT*e[5mC]*eT*eT) [compound 530977]”, the “% inhibition” value (Table 1) was 55%.

“530978 (antisense e[5mC]*eT*eA*eT*eA*dT*d[5mC]*d[5mC]*dA*dG*dA*dT*dA*dT*dG*eG*eT*eG*eT*eT) [compound 530978]” was tested, and the “% inhibition” value (Table 1) was 0%.
